Data published in article PMC9120017, “Inhibition mechanism of the chloride channel TMEM16A by the pore blocker 1PBC” (Nature Communications, 2022).
Like-named read-outs stand apart in the source and are kept apart here.

Biological target: T1, mouse TMEM16A mutant T518A (Mus musculus, UniProt Q8BHY3, T518A)
T1 construct: expressed in transfected cells; host or cells: HEK293T
T1 sequence (Q8BHY3 1-960 T518A): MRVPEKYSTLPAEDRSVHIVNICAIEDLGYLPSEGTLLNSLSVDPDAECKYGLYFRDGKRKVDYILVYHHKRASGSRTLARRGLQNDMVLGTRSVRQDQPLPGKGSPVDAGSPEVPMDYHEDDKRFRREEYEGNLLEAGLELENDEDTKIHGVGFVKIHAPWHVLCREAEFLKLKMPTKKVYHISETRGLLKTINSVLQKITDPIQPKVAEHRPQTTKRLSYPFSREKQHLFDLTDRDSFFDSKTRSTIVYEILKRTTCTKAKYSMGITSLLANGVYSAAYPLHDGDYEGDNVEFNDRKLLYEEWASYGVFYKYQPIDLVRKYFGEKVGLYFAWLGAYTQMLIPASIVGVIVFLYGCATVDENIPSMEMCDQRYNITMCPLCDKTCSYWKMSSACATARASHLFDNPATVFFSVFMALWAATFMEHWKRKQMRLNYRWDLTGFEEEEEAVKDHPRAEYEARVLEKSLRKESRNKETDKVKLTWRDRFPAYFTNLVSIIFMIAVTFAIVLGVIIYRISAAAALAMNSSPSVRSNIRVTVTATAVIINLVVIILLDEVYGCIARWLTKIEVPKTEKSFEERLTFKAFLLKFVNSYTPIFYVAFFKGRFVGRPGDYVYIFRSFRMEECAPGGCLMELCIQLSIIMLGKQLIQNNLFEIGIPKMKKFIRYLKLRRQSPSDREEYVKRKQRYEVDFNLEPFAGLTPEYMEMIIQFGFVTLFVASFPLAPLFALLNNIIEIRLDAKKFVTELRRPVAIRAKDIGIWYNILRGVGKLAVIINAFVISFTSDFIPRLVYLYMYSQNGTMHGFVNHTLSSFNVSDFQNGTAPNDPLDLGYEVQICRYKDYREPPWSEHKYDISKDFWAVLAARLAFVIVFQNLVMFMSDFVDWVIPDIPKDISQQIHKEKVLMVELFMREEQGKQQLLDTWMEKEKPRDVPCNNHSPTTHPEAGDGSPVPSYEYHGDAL
Test: Inside-out patch recording of 1PBC block, mutant T518A
Assay type: cell-based
Conditions: for remaining activity at 1 µM: 1PBC 1; for remaining activity at 1 µM / remaining activity at 3 µM / remaining activity at 10 µM / remaining activity at 30 µM / remaining activity at 100 µM: read-out: fraction of unblocked current; for remaining activity at 3 µM: 1PBC 3; for remaining activity at 10 µM: 1PBC 10; for remaining activity at 30 µM: 1PBC 30; for remaining activity at 100 µM: 1PBC 100
Description: HEK293T cells (ATCC CRL-1573) were maintained in Dulbecco’s modified Eagle’s medium (DMEM; Sigma-Aldrich) supplemented with 10 U ml^−1 penicillin, 0.1 mg ml^−1 streptomycin (Sigma-Aldrich), 2 mM L-glutamine (Sigma-Aldrich), and 10% FBS (Sigma-Aldrich) in a humidified atmosphere containing 5% CO2 at 37 °C. HEK293S GnTI^− cells (ATCC CRL-3022) were maintained in HyClone HyCell TransFx-H medium (GE Healthcare) supplemented with 10 U ml^−1 penicillin, 0.1 mg ml^−1 streptomycin, 4 mM L-glutamine, 0.15% poloxamer 188 (Sigma-Aldrich), and 1% FBS in an atmosphere containing 5% CO2 at 185 rpm at 37 °C. The ac splice variant of mouse TMEM16A (UniProt ID: Q8BHY3), mouse TMEM16B (UniProt ID: Q8CFW1), or mouse TMEM16F (UniProt ID: Q6P9J9) bearing a 3C cleavage site, a Venus YFP, a Myc tag, and a Streptavidin-binding peptide (SBP) downstream of the open reading frame in a modified pcDNA3.1 vector (Invitrogen) were used as described previously[21],[31]. Mutations were introduced using a modified QuikChange method[58] and were verified by sequencing.
HEK293T cells were transfected with 3–4 μg DNA per 6 cm Petri dish using the calcium phosphate co-precipitation method and were used within 24–96 h after transfection. Recordings were performed on inside-out patches excised from HEK293T cells expressing the construct of interest. Patch pipettes were pulled from borosilicate glass capillaries (O.D. 1.5 mm, I.D. 0.86 mm, Sutter Instrument) and were fire-polished with a microforge (Narishige) before use. Pipette resistance was typically 3–8 MΩ when filled with the recording solutions detailed below. Seal resistance was typically 4 GΩ or higher. Voltage-clamp recordings were made using Axopatch 200B, Digidata 1550, and Clampex 10.7 (Molecular Devices). Analog signals were filtered with the in-built 4-pole Bessel filter at 10 kHz and were digitized at 20 kHz. Solution exchange was achieved using a gravity-fed system through a theta glass pipette mounted on an ultra-fast piezo-driven stepper (Siskiyou). […] All recordings were performed at 20 °C.
A symmetrical ionic condition was used throughout. Stock solution with Ca^2+-EGTA contained 150 mM NaCl, 5.99 mM Ca(OH)2, 5 mM EGTA, and 10 mM HEPES at pH 7.40. Stock solution with EGTA contained 150 mM NaCl, 5 mM EGTA, and 10 mM HEPES at pH 7.40. Free Ca^2+ concentrations were adjusted by mixing the stock solutions at the required ratios calculated using the WEBMAXC program (http://web.stanford.edu/~cpatton/webmaxcS.htm). Patch pipettes were filled with the stock solution with Ca^2+-EGTA, which has a free Ca^2+ concentration of 1 mM. 1PBC (ChemBridge) stock was reconstituted in anhydrous DMSO (Sigma-Aldrich) at 100 mM and stored at −20 °C. Working solutions with 1PBC were prepared by serial dilution. Unless otherwise stated, experiments were performed at a saturating Ca^2+ concentration as shown in Supplementary Table 1 and the primary data were corrected for current rundown as described previously[21],[25].
Concentration-response relations, obtained from the ratio of the I-V plots before and after the application of the blocker, were fitted to the Hill equation,1 I/Imax=1/1+IC50/[blocker]^h where I/Imax is the normalized current responses, IC50 defines the concentration at which inhibition is at its half-maximum, and h is the Hill coefficient.

N#Cc1c(C(F)(F)F)cc(O)n2c1nc1ccccc12 [1PBC]
IC50 (0 mV, 2 µM Ca2+): 5.67 µM | remaining activity at 1 µM (0 mV): 82.6% | remaining activity at 1 µM (20 mV): 78.8% | remaining activity at 1 µM (40 mV): 75.1% | remaining activity at 1 µM (60 mV): 71.9% | remaining activity at 1 µM (80 mV): 70.2% | remaining activity at 1 µM (100 mV): 70.4% | remaining activity at 1 µM (120 mV): 72.2% | remaining activity at 1 µM (140 mV): 76.4% | remaining activity at 1 µM (-20 mV): 86.3% | remaining activity at 1 µM (-40 mV): 90% | remaining activity at 1 µM (-60 mV): 91.9% | remaining activity at 1 µM (-80 mV): 93.5% | remaining activity at 1 µM (-100 mV): 95.1% | remaining activity at 1 µM (-120 mV): 96.6% | remaining activity at 1 µM (-140 mV): 98% | remaining activity at 3 µM (0 mV): 65.6% | remaining activity at 3 µM (20 mV): 60.1% | remaining activity at 3 µM (40 mV): 54.5% | remaining activity at 3 µM (60 mV): 51% | remaining activity at 3 µM (80 mV): 47.8% | remaining activity at 3 µM (100 mV): 46.3% | remaining activity at 3 µM (120 mV): 47.6% | remaining activity at 3 µM (140 mV): 50.5% | remaining activity at 3 µM (-20 mV): 71.2% | remaining activity at 3 µM (-40 mV): 76.7% | remaining activity at 3 µM (-60 mV): 81.4% | remaining activity at 3 µM (-80 mV): 84.1% | remaining activity at 3 µM (-100 mV): 87.3% | remaining activity at 3 µM (-120 mV): 90.5% | remaining activity at 3 µM (-140 mV): 92.2% | remaining activity at 10 µM (0 mV): 36.7% | remaining activity at 10 µM (20 mV): 31% | remaining activity at 10 µM (40 mV): 26.8% | remaining activity at 10 µM (60 mV): 24% | remaining activity at 10 µM (80 mV): 22.2% | remaining activity at 10 µM (100 mV): 21.1% | remaining activity at 10 µM (120 mV): 21.2% | remaining activity at 10 µM (140 mV): 22.5% | remaining activity at 10 µM (-20 mV): 42.4% | remaining activity at 10 µM (-40 mV): 48.9% | remaining activity at 10 µM (-60 mV): 54.9% | remaining activity at 10 µM (-80 mV): 59.5% | remaining activity at 10 µM (-100 mV): 64.7% | remaining activity at 10 µM (-120 mV): 68.5% | remaining activity at 10 µM (-140 mV): 71.3% | remaining activity at 30 µM (0 mV): 16.5% | remaining activity at 30 µM (20 mV): 13.3% | remaining activity at 30 µM (40 mV): 11.5% | remaining activity at 30 µM (60 mV): 10.1% | remaining activity at 30 µM (80 mV): 9.34% | remaining activity at 30 µM (100 mV): 8.78% | remaining activity at 30 µM (120 mV): 9.07% | remaining activity at 30 µM (140 mV): 9.98% | remaining activity at 30 µM (-20 mV): 19.7% | remaining activity at 30 µM (-40 mV): 23% | remaining activity at 30 µM (-60 mV): 27.8% | remaining activity at 30 µM (-80 mV): 31.9% | remaining activity at 30 µM (-100 mV): 35.9% | remaining activity at 30 µM (-120 mV): 39.5% | remaining activity at 30 µM (-140 mV): 43.5% | remaining activity at 100 µM (0 mV): 6.52% | remaining activity at 100 µM (20 mV): 4.86% | remaining activity at 100 µM (40 mV): 3.97% | remaining activity at 100 µM (60 mV): 3.5% | remaining activity at 100 µM (80 mV): 3.13% | remaining activity at 100 µM (100 mV): 2.74% | remaining activity at 100 µM (120 mV): 2.48% | remaining activity at 100 µM (140 mV): 2.4% | remaining activity at 100 µM (-20 mV): 8.19% | remaining activity at 100 µM (-40 mV): 9.29% | remaining activity at 100 µM (-60 mV): 11.5% | remaining activity at 100 µM (-80 mV): 13.7% | remaining activity at 100 µM (-100 mV): 16.6% | remaining activity at 100 µM (-120 mV): 18.8% | remaining activity at 100 µM (-140 mV): 21.5% | IC50 (20 mV, 2 µM Ca2+): 4.37 µM | IC50 (40 mV, 2 µM Ca2+): 3.5 µM | IC50 (60 mV, 2 µM Ca2+): 2.99 µM | log-fold IC50 (change of mutant vs WT) (80 mV): 0.1093 | IC50 (80 mV, 2 µM Ca2+): 2.66 µM | IC50 (100 mV, 2 µM Ca2+): 2.55 µM | IC50 (120 mV, 2 µM Ca2+): 2.69 µM | IC50 (140 mV, 2 µM Ca2+): 3.08 µM | IC50 (-20 mV, 2 µM Ca2+): 7.32 µM | IC50 (-40 mV, 2 µM Ca2+): 9.5 µM | IC50 (-60 mV, 2 µM Ca2+): 12.2 µM | IC50 (-80 mV, 2 µM Ca2+): 14.7 µM | IC50 (-100 mV, 2 µM Ca2+): 18.1 µM | IC50 (-120 mV, 2 µM Ca2+): 21.5 µM | IC50 (-140 mV, 2 µM Ca2+): 25.1 µM | IC50 (T518A, V 0 mV): 5.67 µM | IC50 (T518A, V 20 mV): 4.37 µM | IC50 (T518A, V 40 mV): 3.5 µM | IC50 (T518A, V 60 mV): 2.99 µM | IC50 (T518A, V 80 mV): 2.66 µM | IC50 (T518A, V 100 mV): 2.55 µM | IC50 (T518A, V 120 mV): 2.69 µM | IC50 (T518A, V 140 mV): 3.08 µM | IC50 (T518A, V -20 mV): 7.32 µM | IC50 (T518A, V -40 mV): 9.5 µM | IC50 (T518A, V -60 mV): 12.2 µM | IC50 (T518A, V -80 mV): 14.7 µM | IC50 (T518A, V -100 mV): 18.1 µM | IC50 (T518A, V -120 mV): 21.5 µM | IC50 (T518A, V -140 mV): 25.1 µM
